Data: patent US9617221B2, “Kinase modulators for the treatment of cancer” (Synovo GmbH, priority 2010, dated 2017)
Where “and” joins values, the source holds several entries; their conditions need not be identical. Equal entries are not always repeated.

Assays:
Assay type in all cases: cell-based, mice
[1] = system: IL-6; experiment: IL-6 production by LPS-stimulated macrophages; conditions: 10 μM, 72 h
Procedure: (§1) Peritoneal macrophage or splenocytes (lymphocytes and macrophage) were harvested from donor mice using standard techniques. Cells were placed in culture and stimulated with either LPS (10 μg/mL) or concanavalin A 5 μg/mL (Sigma Chemical Co., St Louis, Mo.) in RPMI-1640 medium supplemented with antibiotics, […] 2-mercaptoethanol, 10 mm HEPES buffer and 10% fetal calf serum (FCS) (see Holan et al., 1985) to stimulate macrophage and T-cells respectively. Compounds were added from DMSO stock solutions to a final concentration of 50 μM or less with DMSO not exceeding 1% of total volume. After 72 h, cell supernatant was recovered and the cytokine levels were estimated by ELISA. The effect of compounds on cytokine production was recorded as follows: […]

[2] = system: IL-10; experiment: IL-10 production by LPS-stimulated murine peritoneal macrophage (ELISA); conditions: for IL-10 by ELISA, % of solvent treated control: murine peritoneal macrophage; for IL-10 (LPS, Macrophages), amount of cytokine: 10 μM, 72 h
Procedure: as §1

[3] = system: IL-4; experiment: IL-4 production, Con A, spleen; conditions: 5 μM, 72 h
Procedure: as §1

[4] = system: T cells; experiment: Proliferation of Con A-stimulated T cells; conditions: 10 μM
Procedure: as §1

[5] = system: NO; experiment: NO production by LPS-stimulated macrophages; conditions: 10 μM, 72 h
[6] = system: IL-1β; experiment: IL-1β production by LPS-stimulated macrophages; conditions: 5 μM, 72 h
Procedure: as §1

[7] = system: IFN-g; experiment: IFN-g production by ConA-stimulated T cells; conditions: 10 μM, 72 h
Procedure: as §1

[8] = system: B cells; experiment: Proliferation of LPS-stimulated B cells; conditions: 10 μM
[9] = system: IL-2; experiment: IL-2 production by ConA-stimulated T cells; conditions: 10 μM, 72 h
Procedure: as §1

[10] = system: IL-10; experiment: IL-10 production by ConA-stimulated T cells; conditions: 10 μM, 72 h
Procedure: as §1

| Compound | IL-6 (LPS, Macrophages), amount of cytokine [1] | IL-10 by ELISA, % of solvent treated control ([2]; 2 μM inhibitor in medium) | IL-10 by ELISA, % of solvent treated control ([2]; 10 μM inhibitor in medium) | IL-10 by ELISA, % of solvent treated control ([2]; 50 μM inhibitor in medium) | IL-4 (Con A, spleen), amount of cytokine [3] | Proliferation (Con A, T cells) [4] | IL-10 by ELISA, % of solvent treated control ([2]; 1 μM inhibitor in medium) | IL-10 by ELISA, % of solvent treated control ([2]; 5 μM inhibitor in medium) | IL-10 by ELISA, % of solvent treated control ([2]; 20 μM inhibitor in medium) | NO (LPS, Macrophages), % of control treated with solvent alone [5] | IL-1β (Macrophages, LPS), amount of cytokine [6] | IFN-g (ConA, T cells), amount of cytokine [7] | IL-10 by ELISA, % of solvent treated control ([2]; 1.25 μM inhibitor in medium) | Proliferation (LPS, B cells) [8] | IL-2 (ConA, T cells), amount of cytokine [9] | IL-10 (LPS, Macrophages), amount of cytokine [2] | IL-10 (ConA, T cells), amount of cytokine [10] | IL-10 by ELISA, % of solvent treated control ([2]; 0.31 μM inhibitor in medium) |
| --- | --- | --- | --- | --- | --- | --- | --- | --- | --- | --- | --- | --- | --- | --- | --- | --- | --- | --- |
| CC[C@H]1OC(=O)[C@H](C)[C@@H](O[C@H]2C[C@@](C)(OC)[C@@H](O)[C@H](C)O2)[C@H](C)[C@@H](O[C@@H]2O[C@H](C)C[C@H](N(C)CCCC(=O)OCC(O)CSc3nc(-c4ccc(F)cc4)c(-c4ccnc(NC(C)c5ccccc5)c4)[nH]3)[C@H]2O)[C@](C)(O)C[C@@H](C)CN(C)[C@H](C)[C@@H](O)[C@]1(C)O (stereo partly drawn) [Compound 43i] | 33 % of control treated with solvent alone and 32 % of control treated with solvent alone | 25 % of solvent treated control | 3 % of solvent treated control | 0 % of solvent treated control | 8 % of control treated with solvent alone |  |  |  |  |  |  |  |  |  |  |  |  |  |
| CC[C@H]1OC(=O)[C@H](C)[C@@H](OC2CC(C)(OC)C(O)C(C)O2)[C@H](C)[C@@H](OC2OC(C)CC(NC)C2O)C(C)(O)C[C@@H](C)C(=O)[C@H](C)[C@@H](O)C1(C)O (stereo partly drawn) [Compound 16, 3′-desmethyl erythromycin] | 85 % of control treated with solvent alone |  |  |  |  | 0 % of control treated with solvent alone | 117 % of solvent treated control | 99 % of solvent treated control | 8 % of solvent treated control | 63 % of control treated with solvent alone | 85 % of control treated with solvent alone | 2 % of control treated with solvent alone |  |  |  |  |  |  |
| CC[C@H]1OC(=O)[C@H](C)[C@@H](O[C@H]2C[C@@](C)(OC)[C@@H](O)[C@H](C)O2)[C@H](C)[C@@H](O[C@@H]2O[C@H](C)C[C@H](N(C)CCCC(=O)OCC(O)COc3cccc(C(=O)c4cnn(-c5ccc(F)cc5)c4N)c3)[C@H]2O)[C@](C)(O)C[C@@H](C)CN(C)[C@H](C)[C@@H](O)[C@]1(C)O (stereo partly drawn) [Compound 43h] |  |  |  |  | 280 % of control treated with solvent alone |  |  | 52 % of solvent treated control | −11 % of solvent treated control |  |  |  | 68 % of solvent treated control |  |  |  |  |  |
| CCC1OC(=O)C(C)C(OC2CC(C)(OC)C(O)C(C)O2)C(C)C(OC2OC(C)CC(N(C)CCCCCC(=O)OCCO)C2O)C(C)(O)CC(C)CN(C)C(C)C(O)C1(C)O (stereo not drawn) [Compound 36] | 91 % of control treated with solvent alone | 88 % of solvent treated control | 116 % of solvent treated control | 0 % of solvent treated control |  | 199 % of control treated with solvent alone |  |  |  | 100 % of control treated with solvent alone |  | 99 % of control treated with solvent alone |  | 3 % of control treated with solvent alone | 96 % of control treated with solvent alone | 116 % of control treated with solvent alone | 79 % of control treated with solvent alone |  |
| CC[C@H]1OC(=O)[C@H](C)[C@@H](O[C@H]2C[C@@](C)(OC)[C@@H](O)[C@H](C)O2)[C@H](C)[C@@H](O[C@@H]2O[C@H](C)C[C@H](N(C)CC3CO3)[C@H]2O)[C@](C)(O)C[C@@H](C)C(=O)[C@H](C)[C@@H](O)[C@]1(C)O (stereo partly drawn) [Compound 18, 3′-desmethyl-3′-oxiranylmethyl erythromycin] | 90 % of control treated with solvent alone and 109 % of control treated with solvent alone and 106 % of control treated with solvent alone |  | 109 % of solvent treated control |  | 91 % of control treated with solvent alone and 84 % of control treated with solvent alone |  | 124 % of solvent treated control | 109 % of solvent treated control | 57 % of solvent treated control | 47 % of control treated with solvent alone and 54 % of control treated with solvent alone and 65 % of control treated with solvent alone | 104 % of control treated with solvent alone and 81 % of control treated with solvent alone and 70 % of control treated with solvent alone |  |  |  | 52 % of control treated with solvent alone and 86 % of control treated with solvent alone | 110 % of control treated with solvent alone and 108 % of control treated with solvent alone | 38 % of control treated with solvent alone and 70 % of control treated with solvent alone |  |
| CC[C@H]1OC(=O)[C@H](C)[C@@H](O[C@H]2C[C@@](C)(OC)[C@@H](O)[C@H](C)O2)[C@H](C)[C@@H](O[C@@H]2O[C@H](C)C[C@H](N(C)CCCC(=O)OCC(O)CSc3nc(-c4ccc(F)cc4)c(-c4ccnc(NC(C)C(C)C)c4)[nH]3)[C@H]2O)[C@](C)(O)C[C@@H](C)CN(C)[C@H](C)[C@@H](O)[C@]1(C)O (stereo partly drawn) [Compound 43a] | 15 % of control treated with solvent alone | 16 % of solvent treated control | 2 % of solvent treated control | 5 % of solvent treated control |  | 0 % of control treated with solvent alone |  |  |  | 1 % of control treated with solvent alone |  | 3 % of control treated with solvent alone |  | 2 % of control treated with solvent alone | 0 % of control treated with solvent alone | 2 % of control treated with solvent alone | 0 % of control treated with solvent alone |  |
| CC[C@H]1OC(=O)[C@H](C)[C@@H](O[C@H]2C[C@@](C)(OC)[C@@H](O)[C@H](C)O2)[C@H](C)[C@@H](O[C@@H]2O[C@H](C)C[C@H](N(C)CC(O)CSc3nc(-c4ccc(F)cc4)c(-c4ccncc4)[nH]3)[C@H]2O)[C@](C)(O)C[C@@H](C)C(=O)[C@H](C)[C@@H](O)[C@]1(C)O (stereo partly drawn) [Compound 21] | 101 % of control treated with solvent alone |  | −13 % of solvent treated control |  |  |  |  | 1 % of solvent treated control | −8 % of solvent treated control |  | 101 % of control treated with solvent alone and 143 % of control treated with solvent alone | 0 % of control treated with solvent alone | 95 % of solvent treated control |  |  |  |  | 132 % of solvent treated control |
| CCC(C)Nc1cc(-c2[nH]c(SCC(O)COC(=O)CCCN(C)[C@H]3C[C@@H](C)O[C@@H](O[C@@H]4[C@@H](C)[C@H](O)[C@@H](C)C(=O)O[C@H](CC)[C@@](C)(O)[C@H](O)[C@@H](C)N(C)C[C@H](C)C[C@@]4(C)O)[C@@H]3O)nc2-c2ccc(F)cc2)ccn1 (stereo partly drawn) [Compound 43e] | 29 % of control treated with solvent alone | −4 % of solvent treated control | −4 % of solvent treated control | −4 % of solvent treated control |  | −1 % of control treated with solvent alone |  |  |  | 1 % of control treated with solvent alone |  | 0 % of control treated with solvent alone |  | −3 % of control treated with solvent alone | 0 % of control treated with solvent alone | −4 % of control treated with solvent alone | −2 % of control treated with solvent alone |  |
